These results are taken from US20250332223A1, “GHRH ANTAGONISTS FOR USE IN A METHOD OF TREATING SARCOIDOSIS” (University of Miami, priority 2019, published 2025).

Assay [1] has as its system sarcoidosis mice model. Description: RNASeq transcriptomics of lung in sarcoidosis mice model (Example 7). In kind it is in vivo. The settings on record: granuloma mice, daily MIA-602 5 μg intraperitoneal vs saline. The method, then:
RNA from mouse lungs were extracted using RNA Miniprep Plus Kit (Zymo Research). Briefly, whole lung was homogenized in TRI reagent and total RNA extraction was performed following the instructions provided by the manufacturer with additional DNase treatment. Quantity and quality of the samples were determined by NanoDrop spectrophotometer and Agilent Bioanalyzer 2100, respectively (Zhang et al., Front Immunol 2019; 10: 2888).
Preparation and sequencing of RNA libraries was performed. Briefly, total RNA quantity and quality were determined using the Agilent Bioanalyzer. At least 300 ng of total RNA was used as input for the KAPA RNA HyperPrep Kit with RiboErase (HMR) according to manufacturer's protocol to create ribosomal RNA-depleted sequencing libraries. Sequencing was performed on the Illumina NextSeq 500, generating ˜40 million single-end 75 base reads per sample. Sequencing data were processed with a bioinformatics pipeline including quality control, alignment to the […], and gene quantification. Count data was inputted into edgeR software for differential expression analysis. Counts were normalized using the trimmed mean of M-values (TMM) method to account for compositional difference between the libraries and paired differential expression analysis using a generalized linear model with sample as a blocking factor. […]

Assay [2] has as its system granuloma (PBMC challenged with microparticles). The assay is described as follows: Cytokine production in in vitro granuloma from PBMC of sarcoidosis subjects, multiplex ELISA (Example 2). The assay is classed as cell-based, human. The note with it: 1 microM MIA-602, 48 h, media. The method, then:
In vitro granuloma was developed by challenging PBMC with microparticles as previously described (Zhang et al., Sci Rep 2020; 10: 7277).
To measure cytokines in media, supernatant aliquot samples were analyzed, thawed, and spun at 12,000 rpm for 10 min to separate the particulate material at the bottom. Fifty μl of undiluted media was plated from each sample onto a 96-well V-bottom plate (source plate) by manual pipetting according to predefined maps. The aliquots were wrapped in parafilm and kept in a humid chamber at 4° C. during the entire process, but not longer than 72 hr. Growth factors and their receptor's capture antibodies were reconstituted and diluted per manufacturer specification and 50 μl plated into each well of respective 96-well high-binding half-well plates, which were then sealed and incubated overnight at 4° C. The cytokine levels were measured using a procartaplex human th1/th2 cytokine panel 11 plex from Invitrogen, (epx110-10810-901).
Granuloma and PBMC were collected from five sarcoidosis subjects. The samples were grouped as control (not challenged), granuloma group challenged with a 10:1 treatment with microparticles but left untreated, challenged granuloma group treated with 1 microM MIA-602 in vitro, and challenged granuloma group treated with methyl prednisolone in vitro. Media were removed 48 h after of treatments. Cytokines were measured using an multiplex ELISA instrument.

The test system of assay [3] is sarcoidosis mice model. Description: NOS2 and nitrotyrosine staining of lung in sarcoidosis mice model (Example 6). In kind it is in vivo. The note with it: daily intraperitoneal MIA-602 5 μg, lung harvested after three weeks. The protocol:
For immunohistochemistry, 5-μm paraffin sections were processed by deparaffinization and rehydration followed by endogenous peroxidase blocking (1% H2O2 in methanol for 20 minutes) and antigen retrieval (boiled in 10 mM citrate buffer for 30 minutes). Tissue sections were blocked with 2% goat or horse serum (Vector Laboratories) and incubated with antibody CD68 (Proteintech, Cat #25747-1-AP), PD-1 (Cell Signaling, cat #84651), PD-L1 (Proteintech, Cat #17952-1-AP), CD30 (Lsbio, cat #LS-c162069) CD3 (Cell Signaling, cat #99940), iNOS (Invitrogen, cat #PAI-036), or Nitrotyrosine (Novus, NBP2-54606) over night at 4° C., washed with TBST five times, then exposed to secondary antibodies (Vector Laboratories, cat #PI-2000). Immunoreactivity was detected using the ABC Elite kit (Vector Laboratories). DAB was used as final chromogen and hematoxylin as the nuclear counterstain. Negative controls for all antibodies were made by replacing the primary antibody with non-immunogen IgG.
Inducible nitric oxide synthases (iNOS) produces nitric oxide and has a crucial role in granuloma development. iNOS is expressed in macrophages after exposure to bacterial lipopolysaccharides and IFNγ (Facchetti et al., Am J Pathol 1999; 154: 145-152). […] Lung tissue was harvested after three weeks and tissue stained with NOS2 and nitrotyrosine. […] The finding was not statistically significant.

In assay [4] the test system is mouse model of pulmonary sarcoidosis. Description: Mouse model of pulmonary sarcoidosis, lung inflammation grading (Example 1). The assay is classed as in vivo, C57B1/6 mice. The settings on record: sarcoidosis mice, treated two weeks, vs saline-treated sarcoidosis group; MIA-602 5 μg/day intraperitoneal; FIGS. 1A-E. The method, then:
Granulomatous reaction in the mouse lung was developed as previously described (Zhang et al., Front Immunol 2019; 10: 2888).
The detail of the methodology used for confocal microscopy is discussed in Zhang et al., Front Immunol 2019; 10: 2888. To summarize, mice were killed on day 14, and the left lungs were harvested. Lungs were filled with 10% buffered formalin and fixed in formalin for at least 72 h before IHC staining. H&E staining was used to determine inflammatory pathology.
Lung inflammation was scored using the three fields with the highest infiltrate's intensity at 100× power magnification as previously described (Zhang et al., Front Immunol 2019; 10: 2888). The area of inflammation was measured and averaged for the three examined high-power fields.
A mouse model of pulmonary sarcoidosis was established in C57B1/6 mice by administering microparticles intratracheally. The tongue was pulled out with a small spatula and microparticles were inserted into the trachea using a 20 G angio-catheter tube at the time of laryngeal opening and advanced to main bronchus until reach to resistant. After tube placement, microparticles were administered: a first dose of 5×10^8 CFU of M. abscessus in 50 μL with three subsequent doses of 2×10^8 CFU of M. abscessus in 20 μL. A control group received only 20 μL PBS intratracheally. Mice receiving microparticles developed noncaseating granuloma in the lung, as observed use H&E staining and immunohistochemistry staining for CD68 macrophage marker, CD4 marker, and PD-L1.
The first sarcoidosis group received MIA-602 (5 μg/day), administered via intraperitoneal injection. The second sarcoidosis group received α-melanocyte stimulating hormone (α-MSH), the third sarcoidosis group received steroid treatment (methyl-prednisone, the current first line treatment for sarcoidosis), and the fourth group received only saline. Mice were sacrificed after two weeks, and inflammation in lung samples was graded.

As to “[PhAc-Ada^0-Tyr^1, D-Arg^2, Fpa5^6, Ala^8, Har^9, Tyr(Me)^10, His^11, Orn^12, Abu^15, His^20, Orn^21, Nle^27, D-Arg^28, Har^29]hGH-RH(1-29)NH2 [MIA-602]”, in the assay on sarcoidosis mice model [1], the genes downregulated is 293 genes and the genes upregulated is reported as 778 genes. In assay [2], the “cytokine production of CCL2” value is on record as “significantly reduced”, the “cytokine production of CCL5” value is given as “significantly reduced”, the “cytokine production of CXCL9” value is “significantly reduced” and the “cytokine production of IFNα” value is given as “significantly reduced”. In assay [2], the “cytokine production of IL2” value was “significantly reduced”, the “cytokine production of IL7” value is recorded as “significantly reduced”, the “cytokine production of IL10” value is reported as “significantly reduced” and the “cytokine production of IL12” value is reported as “significantly reduced”. In addition, in assay [2], the “cytokine production of IL15” value is “significantly reduced” and the “cytokine production of IL17A” value is given as “significantly reduced”. Moreover, the NOS2 expression result with sarcoidosis mice model [3] (FIG. 7) is recorded as “reduced following MIA-602 treatment. The finding was not statistically significant”. Further, the nitrotyrosine levels result in the assay with sarcoidosis mice model [3] (FIG. 8) is listed as “reduced the nitrotyrosine levels, but the reduction was not statistically significant”. Further, the “inflammation in lung samples (inflammation score)” value in assay [4] is reported as “lower inflammation scores”.
